The values below are quoted from earlier work in patent publication US20110262453A1, “Markers for Assessing the Susceptibility of Cancer to IGF-1R Treatment” (priority 2008, published 2011).

One series concerns the target IGF-1R over IR (Homo sapiens, UniProt P08069).
The subject of series [1] is cultured IGF-1R-positive tumor cells.
A further series has as its target IGF-1R (Homo sapiens, UniProt P08069).
Series [2] relates to xenografted and allografted mice.

Molecules are shown by their SMILES.

Chain of IGF-1R over IR (P08069 31-1367): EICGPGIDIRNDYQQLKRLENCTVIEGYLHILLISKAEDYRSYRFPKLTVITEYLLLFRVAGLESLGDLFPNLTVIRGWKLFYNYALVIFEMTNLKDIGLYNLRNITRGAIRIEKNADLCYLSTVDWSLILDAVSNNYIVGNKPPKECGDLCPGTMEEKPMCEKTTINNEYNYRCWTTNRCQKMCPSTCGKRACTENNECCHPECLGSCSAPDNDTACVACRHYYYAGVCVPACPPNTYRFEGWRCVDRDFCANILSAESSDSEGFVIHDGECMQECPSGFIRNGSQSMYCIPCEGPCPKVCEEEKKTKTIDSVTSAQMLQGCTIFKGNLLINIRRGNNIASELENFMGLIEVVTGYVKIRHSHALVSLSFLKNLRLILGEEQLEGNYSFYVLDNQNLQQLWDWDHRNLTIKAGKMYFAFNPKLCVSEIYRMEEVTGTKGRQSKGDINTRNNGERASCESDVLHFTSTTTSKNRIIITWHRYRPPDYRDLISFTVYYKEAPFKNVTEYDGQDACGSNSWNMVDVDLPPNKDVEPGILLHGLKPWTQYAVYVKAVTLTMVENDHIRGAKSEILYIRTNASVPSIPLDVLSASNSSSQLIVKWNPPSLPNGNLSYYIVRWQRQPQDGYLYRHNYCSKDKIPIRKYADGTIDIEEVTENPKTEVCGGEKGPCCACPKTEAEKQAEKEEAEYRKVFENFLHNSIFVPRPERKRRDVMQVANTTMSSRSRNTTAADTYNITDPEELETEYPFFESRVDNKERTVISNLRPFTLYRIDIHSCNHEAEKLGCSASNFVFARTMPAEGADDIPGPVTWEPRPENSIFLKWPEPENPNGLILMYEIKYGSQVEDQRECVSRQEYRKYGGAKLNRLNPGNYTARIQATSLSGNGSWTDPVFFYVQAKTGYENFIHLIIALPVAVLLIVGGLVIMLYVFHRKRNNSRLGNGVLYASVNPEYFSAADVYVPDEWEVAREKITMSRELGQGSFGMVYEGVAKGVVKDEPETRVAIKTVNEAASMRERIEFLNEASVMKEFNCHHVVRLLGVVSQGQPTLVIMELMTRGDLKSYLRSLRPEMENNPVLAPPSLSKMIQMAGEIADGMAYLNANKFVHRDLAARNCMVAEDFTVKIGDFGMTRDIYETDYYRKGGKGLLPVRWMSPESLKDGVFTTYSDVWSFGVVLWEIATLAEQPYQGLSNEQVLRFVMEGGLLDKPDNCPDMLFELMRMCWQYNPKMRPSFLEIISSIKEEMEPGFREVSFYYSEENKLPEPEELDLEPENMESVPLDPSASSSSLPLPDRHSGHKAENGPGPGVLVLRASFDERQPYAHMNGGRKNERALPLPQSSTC
Chain of IGF-1R (P08069 31-1367): as above

For the molecule `N#C/C(=C\c1ccc(O)c(O)c1)C(=O)c1ccc(O)c(O)c1` [AG538], the “selectivity towards IGF-1R over IR (in words)” value at IGF-1R over IR is on record as “some selectivity”.
One may read the LD50 as the dose expected to kill half of the subjects tested. Take `COc1cc([C@@H]2c3cc4c(cc3[C@H](O)[C@H]3COC(=O)[C@@H]23)OCO4)cc(OC)c1OC` [PPP, picropodophyllin]: in series [1], the apoptosis result is recorded as “induced apoptosis”; the “pAkt and phosphorylated extracellular signal regulated kinase 1 and 2 (pErk1/2)” value is reported as “reduced”. Further, in the series on rodents, the LD50 is over 500 mg/kg. Also, the IGF-1R activity entry on IGF-1R is reported as “efficiently blocked IGF-1R activity”. In addition, the tumor regression result in series [2] is given as “complete tumor regression”.
`CC(C)(C)c1cc(C=C(C#N)C#N)cc(Br)c1O` [AG1024]: at IGF-1R over IR, the “selectivity towards IGF-1R over IR (in words)” value is “some selectivity”.
In the case of `Nc1ncnc2c1c(-c1cccc(OCc3ccccc3)c1)cn2C1CC(CN2CCC2)C1` (centres unmarked) [NVP-AEW541], the “selectivity towards IGF-1R over IR” value on IGF-1R over IR is 100 fold.
